Reference: patent publication US20250265710A1, “NON-INVASIVE LASER SPECKLE IMAGING OF EXTRA-EMBRYONIC BLOOD VESSELS” (California Institute of Technology, priority 2024, published 2025)
Like-named read-outs stand apart in the source and are kept apart here.

System: chick embryonic heart
Method: These drugs were injected through the shell ventral to chick embryos at a developmental HH stage between HH16-19. The needle was guided to the embryos by the LLSCI system in live view mode.
In one example, before imaging, the eggs are injected with a drug by implementing a live view mode to ascertain the position of the embryo's heart and inserted a needle into the eggshell and the drug was injected into the area ventral to the embryo in a volume of 25-150 μL. This may result in a hole in the eggshell having a diameter between 0.6 and 0.8 mm. The hole can be covered by transparent tape to ensure the continued development of the embryo. After injection, the egg may be placed in an incubator (e.g., incubator 440 in FIG. 4) and imaged at regular intervals using a GUI (e.g., GUI 487 in FIG. 4). FIG. 22 is a schematic representation of a procedure for using LSCI imaging to determine the location of avian embryos for injection, according to an embodiment.
FIG. 23A depicts images of extraembryonic blood vessels of the control egg generated by the LSCI system 400 in FIG. 4 and images (frames) of a movie showing the dynamics of the blood vessels at time=3 minutes, time=34 minutes, time=73 minutes, time=129 minutes, time=250 minutes, and time=270 minutes. FIG. 23A also includes a time trace of BFI at these times. The time trace of the BFI is indicative of heart rate.
To quantify and characterize the effects of injecting a drug solution onto the CAM, an LSCI system was used to extract four features from the blood vessels images and blood flow graphs. FIG. 24 depicts examples of extraembryonic blood vessel images 2410, 2420 before and after feature extraction, and a heartbeat signal, according to embodiments. Blood vessel skeleton, branches, and the size of the CAM visualized. […] The LSCI system implemented the LSCI process 1400 shown in FIG. 14 to extract the features.
In various examples, the length of the blood vessels may be calculated as the total length of the vessel skeleton in the blood vessel image. In various examples, the number of branches may be determined by counting the branch points connecting the blood vessels and isolated vessel segments in the blood vessel images. In various examples, the vessel area may be obtained by calculating the area of the CAM in the blood vessel image. In various examples, the heart rate may be measured from the Fourier transform of the blood flow signal.
Tests were also performed on five eggs for each of the two Amlodipine concentrations. […] FIG. 25B includes a plot of heart rate 2530, a plot of length of blood vessels 2532, a plot of the number of branches 2540, and a plot of the size of the area vaculosa (AV) 2542 for test eggs injected with two different Amlodipine concentrations, according to embodiments.

COC(=O)C1=C(C)NC(C)=C(C(=O)OC)C1c1ccccc1[N+](=O)[O-] [Nifedipine]
time after injection without begin of return of heart rate to normal levels (higher doses above 5 nmol): > 100 min | time to heart rate nadir (higher doses above 5 nmol): 20 min | period over which heart rate dropped (low doses around 3 nmol): 40 min | heart rate an hour after injection (one egg, 50 μL solution with 3 nmole): 100 bpm | heart rate after injection (one egg, 50 μL solution with 3 nmole, dropped from 132 bpm pre-injection): 94 bpm

CCOC(=O)C1=C(COCCN)NC(C)=C(C(=O)OC)C1c1ccccc1Cl (centres unmarked) [Amlodipine]
embryo viability (higher doses >60 nmol): embryo died at the time of injection, or its later development was heavily compromised | time to heart rate nadir (higher doses >60 nmol): 20 min | embryo development when incubated 7 days after the experiment (lowest dose tested (<50 nmol)): developed normally
